This is an account of results in US20240301501A1, “A METHOD FOR ASSESSING THE POTENTIAL EFFECT OF THERAPEUTICS ON AN INDIVIDUAL” (AGENCY FOR SCIENCE TECHNOLOGY AND RESEARCH, priority 2022, published 2024).

Read-outs that look alike come from different tables or passages of the source.

The nature of series [1]: Endocrine symptoms / side effects of tamoxifen therapy, FACT-ES questionnaire. It counts as in vivo, human (Indonesian ER+ breast cancer patients). As for the experimental part:
(§1) This group of patients were determined based on clinical judgement according to the available guidelines by The National Surgical Oncologist Organization and Ministry of Health in Indonesia (Komite Penanggulangan Kanker Nasional, n.d.), National Comprehensive Cancer Network (NCCN, 2021), and British Columbia Cancer Agency.
(§2) Data and statistical analysis were performed using Microsoft® Excel® for Microsoft 365 and R version 4.0.3. Deviation from Hardy-Weinberg equilibrium was performed on the haplotype frequencies using the chi-square statistical test, where Bonferonni correction was applied to determine the p-value threshold for significant deviation. Analysis of Variance (ANOVA) test was used to see if metabolite levels distribution at baseline were statistically different across all metabolites, followed by a paired T-test between each pair of metabolites when significance was found. Distribution of metabolite levels before and after dose adjustment was compared using a T-test, and the same test was used to compare the distribution of metabolite levels in IMs post-dose adjustment against NMs (baseline). Concerning symptoms related to endocrine therapy post-dose adjustment on IMs were compared against NMs. Chi-square test was performed per symptom to check for the difference between the two groups.

The nature of series [2]: Measurement of tamoxifen metabolites in finger-prick blood (VAMS, UPLC-MS/MS). It counts as in vivo, human (Indonesian ER+ breast cancer patients). To be noted: for range of metabolite levels before dose adjustment / range of metabolite levels after dose adjustment: IM patients (n=26); for range of metabolite levels before dose adjustment: tamoxifen 20 mg daily; for concentration at 8 weeks: human, whole blood (finger-prick, VAMS), oral, 40 mg daily, read-out: range of metabolite levels after dose adjustment; for range of metabolite levels after dose adjustment: tamoxifen 40 mg daily for two months. The method, then:
Finger-prick blood sample was obtained using Volumetric Absorptive Microsampling (VAMS) technique. VAMS extraction was performed in methanol by sonication-assisted extraction method for 25 minutes after 2 hours of VAMS drying. Separation was carried out using Acquity UPLC BEH C1s column (2.1×100 mm; 1.7 μm), with a flow rate of 0.2 mL/minute, and the mobile phase gradient of formic acid 0.1% combined with formic acid 0.1% in acetonitrile for 5 minutes. The UPLC-MS/MS Waters Xevo TQD Triple Quadrupole with MassLynx Software controller (Waters, Milford, USA) was employed in metabolites measurement. Mass detection was carried out utilizing Triple Quadrupole (TOD) with Multiple Reaction Monitoring (MRM) analysis modes and an electrospray ionization source using positive mode. The method was developed in the Bioavailability and Bioequivalence Laboratory of Universitas Indonesia and validated according to FDA and EMA guidelines. The multiple reaction monitoring (MRM) value were set at m/z 372.28>72.22 for TAM; 374.29>58.22 for END; 388.29>72.19 for 4-HT; 358.22>58.09 for NDT; and 260.20>116.20 for propranolol as the internal standard.
as §1, §2

The conditions of series [3]: cited from earlier work.
The mark [4] stands for this setting: IM participants, 40 mg tamoxifen daily (N = 22), eight weeks after dose adjustment.
Where [5] appears, read: IM participants, 40 mg tamoxifen daily, eight weeks after dose adjustment.
The mark [6] stands for this setting: IMs, 40 mg tamoxifen daily, n=26.
Setting [7] is: NM participants, 20 mg tamoxifen daily (N = 31).
Where [8] appears, read: NMs, 20 mg tamoxifen daily, n=31.
[9] abbreviates: CYP2D6 Intermediate Metabolizer (N = 61), baseline.
[10] abbreviates: CYP2D6 Normal Metabolizer (N = 81), baseline.
[11] abbreviates: CYP2D6 Poor Metabolizer (N = 2), baseline.

Consider `CC/C(=C(\c1ccccc1)c1ccc(OCCN(C)C)cc1)c1ccccc1` [tamoxifen], for which, in series [1] (40 mg daily versus 20 mg daily, eight weeks after dose adjustment), the “toxicity or side effects on dose escalation” value is “did not increase potential toxicity or side effects”. In series [1] (setting [4]), the “Cold Sweats: Patients reported side effect (%)” value is on record as 19.23%, the “Diarrhea: Patients reported side effect (%)” value was determined as 0.00%, the “Headaches: Patients reported side effect (%)” value is listed as 53.85% and the “Hot Flashes: Patients reported side effect (%)” value came to 50.00%. In series [1] (setting [4]), the “Lightheaded (dizzy): Patients reported side effect (%)” value was found to be 34.62%, the “Mood swings: Patients reported side effect (%)” value is listed as 65.38%, the “Pain in joints: Patients reported side effect (%)” value was found to be 50.00% and the “Pain or discomfort with intercourse: Patients reported side effect (%)” value came to 3.85%. For the same compound, in series [1] (setting [5]), the “Breast sensitivity/tenderness: Patients reported side effect (%)” value is 53.85%, the “Irritable: Patients reported side effect (%)” value stood at 61.54%, the “Lost interest in sex: Patients reported side effect (%)” value came to 15.38% and the “Night sweats: Patients reported side effect (%)” value is 26.92%. Moreover, in series [1] (setting [5]), the “Vaginal bleeding or spotting: Patients reported side effect (%)” value is 23.08%, the “Vaginal discharge: Patients reported side effect (%)” value was determined as 42.31%, the “Vaginal dryness: Patients reported side effect (%)” value is 11.54% and the “Vaginal itching/irritation: Patients reported side effect (%)” value was 15.38%. In addition, in series [1] (setting [5]), the “Vomiting: Patients reported side effect (%)” value worked out at 3.85% and the “Weight gain: Patients reported side effect (%)” value is 65.38%. Besides, in series [1] (setting [6]), the “breast sensitivity or tenderness, participants reporting” value turned out to be 53.85%; the “cold sweats, participants reporting” value is listed as 19.23%; the “headaches, participants reporting” value was 53.85%; the “hotflush, participants reporting” value is 50%. For the same compound, in series [1] (setting [6]), the “irritability, participants reporting” value was 61.54%; the “lightheaded/dizziness, participants reporting” value came to 34.62%; the “lost interest in sex, participants reporting” value turned out to be 15.38%; the “mood swings, participants reporting” value turned out to be 65.83%. Besides, in series [1] (setting [6]), the “night sweats, participants reporting” value turned out to be 26.92%; the “pain in joints, participants reporting” value turned out to be 50%; the “pain or discomfort during intercourse, participants reporting” value is reported as 3.85%; the “vaginal bleeding or spotting, participants reporting” value is 23.08%. For the same compound, in series [1] (setting [6]), the “vaginal discharge, participants reporting” value is on record as 42.31%; the “vaginal dryness, participants reporting” value is recorded as 11.54%; the “vaginal itching or irritation, participants reporting” value was found to be 15.38%; the “vomiting, participants reporting” value is given as 3.85%. Further, in series [1] (setting [6]), the “weight gain, participants reporting” value came to 65.83%. Besides, the “diarrhea, participants reporting” value in series [1] (IMs, 40 mg tamoxifen daily, post-dose adjustment) is “No post-dose adjustment participants reported diarrhea”. Further, in series [1] (setting [7]), the “Breast sensitivity/tenderness: Patients reported side effect (%)” value is given as 41.94%, the “Cold Sweats: Patients reported side effect (%)” value was found to be 12.90%, the “Diarrhea: Patients reported side effect (%)” value is listed as 3.23% and the “Headaches: Patients reported side effect (%)” value came to 29.03%. In series [1] (setting [7]), the “Hot Flashes: Patients reported side effect (%)” value came out at 35.48%, the “Irritable: Patients reported side effect (%)” value was found to be 58.06%, the “Lightheaded (dizzy): Patients reported side effect (%)” value is recorded as 35.48% and the “Lost interest in sex: Patients reported side effect (%)” value worked out at 64.52%. In addition, in series [1] (setting [7]), the “Mood swings: Patients reported side effect (%)” value was found to be 74.19%, the “Night sweats: Patients reported side effect (%)” value is 29.03%, the “Pain in joints: Patients reported side effect (%)” value is given as 67.74% and the “Pain or discomfort with intercourse: Patients reported side effect (%)” value worked out at 51.61%. In addition, in series [1] (setting [7]), the “Vaginal bleeding or spotting: Patients reported side effect (%)” value is reported as 16.13%, the “Vaginal dryness: Patients reported side effect (%)” value came to 32.26%, the “Vaginal itching/irritation: Patients reported side effect (%)” value is 22.58% and the “Vomiting: Patients reported side effect (%)” value is on record as 6.45%. For the same compound, the “Weight gain: Patients reported side effect (%)” value in series [1] (setting [7]) is on record as 64.52%. Moreover, in series [1] (setting [8]), the “breast sensitivity or tenderness, respondents reporting” value is recorded as 41.94%; the “cold sweats, respondents reporting” value is recorded as 12.9%; the “diarrhea, respondents reporting” value came to 3.23%; the “headaches, respondents reporting” value was 29.03%. In series [1] (setting [8]), the “hotflush, respondents reporting” value was determined as 35.48%; the “irritability, respondents reporting” value came to 58.06%; the “lightheaded/dizziness, respondents reporting” value is 35.48%; the “lost interest in sex, respondents reporting” value stood at 64.52%. Further, in series [1] (setting [8]), the “mood swings, respondents reporting” value is listed as 74.19%; the “night sweats, respondents reporting” value is listed as 29.03%; the “pain in joints, respondents reporting” value turned out to be 67.74%; the “pain or discomfort during intercourse, respondents reporting” value is 51.61%. In addition, in series [1] (setting [8]), the “vaginal bleeding or spotting, respondents reporting” value amounted to 16.13%; the “vaginal dryness, respondents reporting” value is 32.26%; the “vaginal itching or irritation, respondents reporting” value was 22.58%; the “vomiting, respondents reporting” value is listed as 6.45%. For the same compound, the “thrombophlebitis, thrombosis, endometriosis, and endometrial cancer” value in series [1] (observed population, short follow up) is “none of these side effects were observed”. Besides, in series [2] (setting [9]), the “Peripheral Whole Blood Concentration, Median” value was found to be 81.72 ng/mL and the “Peripheral Whole Blood Concentration, Range” value fell in the range of 14.22 to 210.39 ng/mL. Further, in series [2] (setting [10]), the “Peripheral Whole Blood Concentration, Median” value is 77.46 ng/mL and the “Peripheral Whole Blood Concentration, Range” value lay in the range of 31.22 to 170.82 ng/mL. In addition, in series [2] (setting [11]), the “Peripheral Whole Blood Concentration, Median” value came out at 91.49 ng/mL and the “Peripheral Whole Blood Concentration, Range” value fell in the range of 67.49 to 115.48 ng/mL. Besides, in series [2], the “range of metabolite levels before dose adjustment” value lay within 14.22 to 210.39 ng/mL and the concentration at 8 weeks lay in the range of 80.6 to 255 ng/mL.
For `CC/C(=C(\c1ccc(O)cc1)c1ccc(OCCN(C)C)cc1)c1ccccc1` [4OH-tam], the “Peripheral Whole Blood Concentration, Median” value came to 3.27 ng/mL in series [2] (setting [9]), 3.07 ng/mL in series [2] (setting [10]) and 3.24 ng/mL in series [2] (setting [11]). Further, the “Peripheral Whole Blood Concentration, Range” value in series [2] (setting [9]) is 1.5 to 9.31 ng/mL; in series [2] (setting [10]), 1.5 to 7.66 ng/mL; in series [2] (setting [11]) it was 3.06 to 3.43 ng/mL.
For the compound `CC/C(=C(\c1ccc(O)cc1)c1ccc(OCCNC)cc1)c1ccccc1` [endoxifen, 4-hydroxy-N-desmethyltamoxifen], the “average endoxifen level of IMs” value was 8.1 ng/mL in series [3] (previous study) and 9.6 ng/mL in series [2] (this study, IMs). The results for the “range of endoxifen level” value in series [3] (study in Singaporean population) and in series [3] (study in Swedish population) were 1.74 to 42.8 ng/mL and 2.3 to 16 ng/mL, respectively. Also, the “Peripheral Whole Blood Concentration, Median” value was found to be 8.33 ng/mL in series [2] (setting [9]), 11.98 ng/mL in series [2] (setting [10]) and 4.52 ng/mL in series [2] (setting [11]). For the same compound, the “Peripheral Whole Blood Concentration, Range” value is 3.17 to 22.97 ng/mL in series [2] (setting [9]), 3.55 to 34.77 ng/mL in series [2] (setting [10]) and 3.94 to 5.11 ng/mL in series [2] (setting [11]). The “range of metabolite levels before dose adjustment” value in series [2] lay in the range of 3.17 to 22.97 ng/mL. Moreover, the “endoxifen levels in NMs at baseline” value in series [2] (NM patients (n=81), tamoxifen 20 mg/day, baseline) lay in the range of 3.55 to 34.77 ng/mL. Besides, in series [2], the concentration at 8 weeks fell in the range of 7.68 to 23.4 ng/mL.
On to `CC/C(=C(\c1ccccc1)c1ccc(OCCNC)cc1)c1ccccc1` [ND-tam], for which the results for the “Peripheral Whole Blood Concentration, Median” value in series [2] (setting [9]), in series [2] (setting [10]) and in series [2] (setting [11]) were 241.55 ng/mL, 240.59 ng/mL and 276.45 ng/mL, respectively. The “Peripheral Whole Blood Concentration, Range” value in series [2] (setting [9]) is 77.61 to 337.29 ng/mL; in series [2] (setting [10]) it was 80.63 to 321.88 ng/mL; in series [2] (setting [11]), 212.5 to 340.41 ng/mL.
Take `CC/C(=C(\c1ccccc1)c1ccc(OCCNC)cc1)c1ccccc1` [N-desmethyltamoxifen]: in series [2], the “range of metabolite levels before dose adjustment” value lay in the range of 77.61 to 337.29 ng/mL and the “range of metabolite levels after dose adjustment” value was 236.8 to 501.9 ng/mL.
On the same counts, the results for 4-hydroxytamoxifen are 1.5 to 9.31 ng/mL and 3.34 to 12.99 ng/mL.
